Series [1] has as its system irradiation induced skin damage. Nature of the series: Mouse leg skin irradiated with 6 MeV electron beam, topical F14 emulsion after irradiation: skin damage. Format: in vivo, C57BL/6NHsd mice. Here is the method: Mouse flank was shaved and depilated 24 hrs. prior to irradiation with 35 GY using a 6 MeV electron beam.
JP4-039 was topically applied in a liposome formulation (F14-JP4-039 Emulsion: JP4-039 (2 mg/ml) was emulsified in sesame seed oil (100 mg/ml), and soy phosphatidyl choline (50 mg/ml) by sonication) 30 minutes after irradiation and daily for the next 3 days. Mice were photographed and skin damage scored by clinical criteria. Leg contracture was measured by comparing maximal extension between control and irradiated legs. Histological characterization of cellular infiltrates and collagen levels was performed.
JP4-039 was topically applied in a the above-described liposome formulation 30 minutes after irradiation. Skin samples taken at 4 hours. Analyzed for apoptosis via caspase 3 and TUNEL. Antioxidant functions evaluated by changes in GSH levels. All quantitative data presented as means±sem and significance determined by ANOVA followed by a Bonferoni post test set at p<0.05.
Materials/Methods: The right legs of C57BL/6NHsd mice were shaved and treated with Nair to remove the fur. Twenty four hours later the right legs were irradiated to doses of 30 or 35 Gy using 6 MeV electron beam, bolused to bring the surface dose to 100%. At 30 minutes after irradiation, 24, 48 and 72 hours, F14 emulsion only or F14-JP4-039 (100 μg in 50 μl) was applied to the skin. Photos were taken for visual evidence of skin damage and leg contracture was measured as a functional evaluation of tissue damage. Histological characterization of skin thickening, cellular infiltrates and collagen evaluation was also performed. To evaluate the mechanism of radiation damage mitigation, skin samples were assayed at 4 hours after irradiation for markers of apoptosis and oxidative stress. Results: Skin damage was scored on day 21 after irradiation. […] Assessment of Irradiation Damage: Skin damage was measured using visual evidence seen from photographs of the skin and measuring leg contracture. […]

The nature of series [2]: In vivo topical delivery in lipid-based formulation, amount retained in tape-stripped skin. To be noted: 2 mg/ml in saline with surfactants and egg PC, liposome size 200 nm; tape-stripped skin of topically treated mice. The method, then:
For these studies, 2 mg/ml JP4-039 was formulated in saline with a mixture of surfactants with egg PC by sonication to a liposome size of 200 nm. Harvested, tape-stripped (to remove superficial drug) skin from topically treated mice was processed as described above to determine the amount of JP4-039 retained in the skin. We found cutaneous retention to be in the range of 11.7+/−3.1 pmole/mg, a level compatible with therapeutic efficacy.

In series [3] the test system is oxidative stress induced skin damage. In words: Mice irradiated with 35 GY, JP4-039 at 0.5, 24 and 48 hours: barrier function (TEWL), fibrosis, thickening. Format: in vivo. Here is the method:
Clinically relevant disruption of skin barrier function results in increased water loss from the skin surface. This can be measured non-invasively by the Transepidermal Water Loss (TEWL) assay. Increasing TEWL values directly correlate with damage to the skin's barrier function.
Groups of mice were irradiated with 35 GY to induce oxidative stress and then treated with JP4-039 or formulation alone 0.5, 24 and 48 hours after exposure. Skin was evaluated 21 days after initial treatment. Damage to skin barrier function was determined by TEWL. Results are reported as % recovery from 35 GY damage defined as (((radiated average−test sample value+0 GY average)/(treated average)*100) (FIG. 18a).
Fibrosis was evaluated histologically by evaluating the extent of collagen infiltration in the skin sections in (FIG. 18b) (100×). Dermal thickness is indicated by the arrows and collagen fibers were identified by Masson's Trichrome staining (blue). Representative H&E stained sections are provided in (FIG. 18c) with arrows showing epidermal thickness (200×). Dermal (FIG. 18d 100×) and epidermal (FIG. 18e) thickness (200×) was quantified at 5 sites within 4 representative histologic images for each mouse using NIH Image J Software. Statistical significance was determined by ANOVA followed by a Bonferroni post test set at p<0.05.

The next series has as its system human skin. In words: Living human skin samples, 60 GY irradiation followed by topical JP4-039: oxidative skin damage. Here is the method:
Oxidative skin damage directly correlates with epidermal thickening, an increase in apoptotic (dying) cells (measured by TUNEL and Caspase release) and an increase in 8-oxoguanine positive cells. Further, oxidative damage is a result of free radical formation that correlates with increases in carbonylated proteins and reduced levels of GSH. […] Living human skin samples were divided and groups of skin samples were treated with either 60 GY irradiation (60 GY), 60 GY followed by topical JP4-039(60 GY+JP4-039), 60 GY followed by formulation without JP4-039(60 GY+Formulation), or were cultured without irradiation (0 GY CONTROL). Photographs in FIG. 10 a) are representative H&E sections (400×). […] In FIG. 10 c) sections were stained with antibody against 8-oxoguanine followed by DAB and counterstained with hemotoxalin. Positive cells have brown nuclei (400×). Epidermal thickness FIG. 10 (d) was determined by photographing 5 consecutive H&E sections (400×) and measuring the length of the epidermis at 5 sites within each photograph. The percentage of TUNEL positive cells FIG. 10 (e) and 8 oxoguanine positive cells FIG. 10 (f) was determined by counting all epidermal cells (positive and negative) in five consecutive 400× sections beginning with the site of maximal apoptosis. Carbonyl Protein FIG. 10 (g), Caspase 3/8 FIG. 10 (h) and GSH FIG. 10 (i) levels were determined in skin homogenates and were normalized by mg protein. Carbonyl protein samples were performed in triplicate from pooled homogenates. All graphical data were converted to % increase from control and are presented as mean+sem. Statistical significance was determined by ANOVA followed by a Bonferroni post test with significance set at p<0.05.

[4] abbreviates: F14 emulsion applied at 30 min after irradiation.
Setting [5] is: living human skin explants, topical.

Consider `CC(C)C[C@@H](/C=C/CC(=O)NC1CC(C)(C)N([O])C(C)(C)C1)NC(=O)OC(C)(C)C` [JP4-039, (S,E)-5-(tert-Butoxycarbonylamino)-7-methyloct-3-enoic Acid-TEMPO], for which, in series [1] (setting [4]), the “caspase 3 activity” value was “decreased” and the “thickening of the skin” value is “decreased”. In addition, the “antioxidant function in the skin” value in series [1] (topical 30 minutes after 35 GY, skin taken at 4 hours, GSH levels) is recorded as “potent antioxidant function”. The compound also came in with a cutaneous retention in series [2] of 11.7 ± 3.1 pmol/mg. The “fibrosis associated changes (epidermal and dermal thickening, collagen deposition)” value in series [3] (day 21) is “prevents/mitigates”. Also, the “radiation induced TEWL increases” value in series [3] (day 21, p=0.011) was “significantly reversed”. In the series on human skin (setting [5]), the “depletion of the antioxidant GSH” value is listed as “decreasing”, the “epidermal thickening associated with oxidative skin damage” value is reported as “reduction”, the “formation of protein carbonyls” value was “reduction” and the “radiation induced cellular apoptosis” value is reported as “reduction”. Further, in the series with human skin (living human skin samples, 60 GY followed by topical JP4-039), the “oxidative damage of human skin” value is “protects human skin from oxidative damage”.

Source of the values: patent US20200000793A1, “TOPICAL FORMULATIONS OF TARGETED NITROXIDE AGENTS” (University of Pittsburgh - Of the Commonwealth System of …, priority 2011, published 2020).
